# Source: patent US11191854B2, “Pharmacokinetic enhancements of bifunctional chelates and uses thereof” (Centre for Probe Development and Commercialization, priority 2017, dated 2021)
# Assay: Metabolic excretion study (urine and feces collection in metabolic cages) of 177Lu-labelled human IgG conjugates
# Format: in vivo, mice (normal CD-1 or athymic CD-1 nude)
# Conditions: mice, intravenous, 7 day period; tested as [177Lu]-HuMIgG conjugates
# Method: Groups of 4 or 5 mice (normal CD-1 or athymic CD-1 nude) were injected intravenously with approximately 15 microcuries of radiolabelled test compound. Test compounds with various linkers were synthesized and radiolabelled with lutetium-177. For pharmacokinetic studies, animals were sacrificed at specific time points, and blood and tumor (when applicable) were analyzed for total radioactivity. For metabolism studies, animals were placed in metabolic cages (4-5 per cage) for urine and feces collection every 24 hours for up to 7 days. The radioactive content of urine and feces samples was quantified and converted to total urine or feces output based on weight. Excretion profiles for urine, feces, or total excretion (urine+feces) were generated by plotting cumulative % injected dose (%ID) over time.
# The human IgG preparation used consisted of a purified mixture of all IgG isotypes (IgG1-4).
structure (smiles),measurement,value
"O=C(O)CN1CCN(CC(=O)O)CCN(C(CCC(=O)NCCOCCOCCOCCC(=O)Oc2c(F)c(F)cc(F)c2F)C(=O)O)CCN(CC(=O)O)CC1 (centres unmarked) [Compound C, 4-{[2-(2-{2-[3-oxo-3-(2,3,5,6-tetrafluorophenoxy)propoxy]ethoxy}ethoxy)ethyl]carbamoyl}-2-[4,7,10-tris(carboxymethyl)-1,4,7,10-tetraazacyclododecan-1-yl]butanoic acid]",total excretion of radioactivity compared to Compound A-HuMIgG,increased the amount total excretion of radioactivity
"O=C(O)CN1CCN(CC(=O)O)CCN(C(CCC(=O)NCCCCCCCCCCC(=O)Oc2c(F)c(F)cc(F)c2F)C(=O)O)CCN(CC(=O)O)CC1 (centres unmarked) [Compound B, 4-{[11-oxo-11-(2,3,5,6-tetrafluorophenoxy)undecyl]carbamoyl}-2-[4,7,10-tris(carboxymethyl)-1,4,7,10-tetraazacyclododecan-1-yl]butanoic acid]",total excretion of radioactivity compared to Compound A-HuMIgG,increased the amount total excretion of radioactivity
